Data as given in the NIST ThermoML archive (doi:10.1021/je8001267).
Numbers after ± are expanded uncertainties.

Settings: Liquid, Closed cell (Static) method

N [ammonia]
Settings | vapor or sublimation pressure [kPa]
303.12 K | 1166 ± 12
313.14 K | 1553 ± 16
323.16 K | 2030 ± 21
333.13 K | 2609 ± 26
343.13 K | 3305 ± 34
353.13 K | 4132 ± 42
363.12 K | 5105 ± 52
373.16 K | 6243 ± 63
